Assay results taken from ChEMBL document CHEMBL1144455, “A small molecule-kinase interaction map for clinical kinase inhibitors” (Nat Biotechnol, 2005).

Assays:
[1] = target: T1, Membrane-associated tyrosine- and threonine-specific cdc2-inhibitory kinase (Homo sapiens, UniProt Q99640)
T1 sequence (Q99640 whole entry): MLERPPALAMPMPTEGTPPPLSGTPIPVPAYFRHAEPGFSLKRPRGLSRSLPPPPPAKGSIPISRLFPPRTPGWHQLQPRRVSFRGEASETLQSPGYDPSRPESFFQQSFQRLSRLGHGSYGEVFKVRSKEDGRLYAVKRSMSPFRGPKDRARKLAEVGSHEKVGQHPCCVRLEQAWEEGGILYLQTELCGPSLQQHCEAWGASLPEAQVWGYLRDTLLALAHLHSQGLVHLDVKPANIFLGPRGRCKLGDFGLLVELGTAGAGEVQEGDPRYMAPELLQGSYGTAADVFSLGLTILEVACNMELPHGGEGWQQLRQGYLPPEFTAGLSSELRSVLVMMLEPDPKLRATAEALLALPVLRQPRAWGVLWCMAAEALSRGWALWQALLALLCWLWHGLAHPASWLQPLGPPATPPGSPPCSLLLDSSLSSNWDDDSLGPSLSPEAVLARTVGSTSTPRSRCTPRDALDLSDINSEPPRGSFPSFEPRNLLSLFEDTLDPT

[2] = target: Tyrosine-protein kinase CSK (Homo sapiens, UniProt P41240)
Sequence of Tyrosine-protein kinase CSK (P41240 whole entry): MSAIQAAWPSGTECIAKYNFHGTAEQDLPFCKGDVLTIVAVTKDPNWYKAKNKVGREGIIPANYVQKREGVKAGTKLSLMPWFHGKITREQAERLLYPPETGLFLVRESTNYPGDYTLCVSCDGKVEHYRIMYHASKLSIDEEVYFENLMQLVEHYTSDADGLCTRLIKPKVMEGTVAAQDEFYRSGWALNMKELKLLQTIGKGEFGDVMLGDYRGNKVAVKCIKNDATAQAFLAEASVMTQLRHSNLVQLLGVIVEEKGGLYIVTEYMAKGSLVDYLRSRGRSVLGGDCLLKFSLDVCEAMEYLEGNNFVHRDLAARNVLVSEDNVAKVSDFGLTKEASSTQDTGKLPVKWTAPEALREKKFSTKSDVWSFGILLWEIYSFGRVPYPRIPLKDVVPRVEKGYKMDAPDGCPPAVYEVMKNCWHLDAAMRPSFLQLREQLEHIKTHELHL

[3] = target: MAP kinase-interacting serine/threonine-protein kinase 2 (Homo sapiens, UniProt Q9HBH9)
Sequence of MAP kinase-interacting serine/threonine-protein kinase 2 (Q9HBH9 whole entry): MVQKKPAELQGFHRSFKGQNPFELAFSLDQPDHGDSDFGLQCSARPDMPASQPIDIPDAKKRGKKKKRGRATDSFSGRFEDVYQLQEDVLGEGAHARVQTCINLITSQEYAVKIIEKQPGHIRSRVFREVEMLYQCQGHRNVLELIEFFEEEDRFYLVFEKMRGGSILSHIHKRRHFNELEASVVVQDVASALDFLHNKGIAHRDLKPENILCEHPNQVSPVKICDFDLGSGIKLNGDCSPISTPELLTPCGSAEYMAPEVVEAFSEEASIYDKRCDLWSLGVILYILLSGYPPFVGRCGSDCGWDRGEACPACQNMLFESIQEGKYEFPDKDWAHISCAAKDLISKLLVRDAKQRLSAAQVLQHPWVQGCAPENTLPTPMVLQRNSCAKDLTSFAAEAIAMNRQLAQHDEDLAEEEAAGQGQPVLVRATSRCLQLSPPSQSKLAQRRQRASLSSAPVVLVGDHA

[4] = target: Dual specificity protein kinase CLK4 (Homo sapiens, UniProt Q9HAZ1)
Sequence of Dual specificity protein kinase CLK4 (Q9HAZ1 whole entry): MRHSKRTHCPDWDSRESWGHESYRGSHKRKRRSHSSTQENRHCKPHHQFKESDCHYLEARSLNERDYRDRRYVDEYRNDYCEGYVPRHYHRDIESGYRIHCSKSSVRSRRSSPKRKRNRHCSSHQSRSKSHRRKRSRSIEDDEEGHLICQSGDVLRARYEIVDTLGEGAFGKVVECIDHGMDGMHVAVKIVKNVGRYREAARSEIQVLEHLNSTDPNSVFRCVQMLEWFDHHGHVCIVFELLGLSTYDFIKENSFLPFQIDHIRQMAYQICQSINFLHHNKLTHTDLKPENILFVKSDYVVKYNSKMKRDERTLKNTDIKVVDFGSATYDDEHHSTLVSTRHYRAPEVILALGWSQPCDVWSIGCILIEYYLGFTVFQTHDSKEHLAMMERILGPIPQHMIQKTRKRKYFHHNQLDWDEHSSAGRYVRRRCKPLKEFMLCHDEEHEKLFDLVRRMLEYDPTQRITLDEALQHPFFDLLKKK

Aurora kinase C = target: T2, Aurora kinase C (Homo sapiens, UniProt Q9UQB9)
T2 sequence (Q9UQB9 whole entry): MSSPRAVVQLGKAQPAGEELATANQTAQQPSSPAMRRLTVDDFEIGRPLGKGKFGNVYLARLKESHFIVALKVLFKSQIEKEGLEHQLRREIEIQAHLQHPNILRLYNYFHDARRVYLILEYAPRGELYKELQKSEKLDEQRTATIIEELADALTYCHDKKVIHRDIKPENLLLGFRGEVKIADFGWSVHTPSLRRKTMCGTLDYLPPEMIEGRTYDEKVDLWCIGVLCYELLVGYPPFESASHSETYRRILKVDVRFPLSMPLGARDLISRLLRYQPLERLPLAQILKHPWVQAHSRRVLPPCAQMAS

[5] = target: Casein kinase I isoform gamma-1 (Homo sapiens, UniProt Q9HCP0)
Sequence of Casein kinase I isoform gamma-1 (Q9HCP0 whole entry, canonical isoform): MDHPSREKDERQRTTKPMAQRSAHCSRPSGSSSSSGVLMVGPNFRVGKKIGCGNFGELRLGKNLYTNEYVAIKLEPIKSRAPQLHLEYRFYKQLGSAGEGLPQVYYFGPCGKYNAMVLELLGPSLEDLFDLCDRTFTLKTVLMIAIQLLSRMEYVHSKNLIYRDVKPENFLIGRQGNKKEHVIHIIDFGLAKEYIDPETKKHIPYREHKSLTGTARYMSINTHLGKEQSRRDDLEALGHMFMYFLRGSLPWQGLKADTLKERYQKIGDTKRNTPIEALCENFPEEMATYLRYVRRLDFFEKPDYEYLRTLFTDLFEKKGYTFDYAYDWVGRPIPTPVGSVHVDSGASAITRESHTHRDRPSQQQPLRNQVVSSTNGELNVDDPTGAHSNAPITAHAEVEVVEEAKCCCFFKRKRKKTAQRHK

[6] = target: Calcium/calmodulin-dependent protein kinase type 1 (Homo sapiens, UniProt Q14012)
Sequence of Calcium/calmodulin-dependent protein kinase type 1 (Q14012 whole entry): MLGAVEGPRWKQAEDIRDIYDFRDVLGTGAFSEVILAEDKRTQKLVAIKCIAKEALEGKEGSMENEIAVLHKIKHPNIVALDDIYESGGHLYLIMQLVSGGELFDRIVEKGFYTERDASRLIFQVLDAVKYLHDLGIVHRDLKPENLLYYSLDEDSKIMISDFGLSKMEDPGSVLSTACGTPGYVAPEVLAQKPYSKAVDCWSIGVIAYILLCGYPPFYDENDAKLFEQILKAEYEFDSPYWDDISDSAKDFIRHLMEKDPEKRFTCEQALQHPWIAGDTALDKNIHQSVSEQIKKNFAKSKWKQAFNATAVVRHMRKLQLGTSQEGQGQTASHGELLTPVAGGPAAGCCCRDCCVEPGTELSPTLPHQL

Ephrin type-A receptor 3 = target: T3, Ephrin type-A receptor 3 (Homo sapiens, UniProt P29320)
T3 sequence (P29320 whole entry): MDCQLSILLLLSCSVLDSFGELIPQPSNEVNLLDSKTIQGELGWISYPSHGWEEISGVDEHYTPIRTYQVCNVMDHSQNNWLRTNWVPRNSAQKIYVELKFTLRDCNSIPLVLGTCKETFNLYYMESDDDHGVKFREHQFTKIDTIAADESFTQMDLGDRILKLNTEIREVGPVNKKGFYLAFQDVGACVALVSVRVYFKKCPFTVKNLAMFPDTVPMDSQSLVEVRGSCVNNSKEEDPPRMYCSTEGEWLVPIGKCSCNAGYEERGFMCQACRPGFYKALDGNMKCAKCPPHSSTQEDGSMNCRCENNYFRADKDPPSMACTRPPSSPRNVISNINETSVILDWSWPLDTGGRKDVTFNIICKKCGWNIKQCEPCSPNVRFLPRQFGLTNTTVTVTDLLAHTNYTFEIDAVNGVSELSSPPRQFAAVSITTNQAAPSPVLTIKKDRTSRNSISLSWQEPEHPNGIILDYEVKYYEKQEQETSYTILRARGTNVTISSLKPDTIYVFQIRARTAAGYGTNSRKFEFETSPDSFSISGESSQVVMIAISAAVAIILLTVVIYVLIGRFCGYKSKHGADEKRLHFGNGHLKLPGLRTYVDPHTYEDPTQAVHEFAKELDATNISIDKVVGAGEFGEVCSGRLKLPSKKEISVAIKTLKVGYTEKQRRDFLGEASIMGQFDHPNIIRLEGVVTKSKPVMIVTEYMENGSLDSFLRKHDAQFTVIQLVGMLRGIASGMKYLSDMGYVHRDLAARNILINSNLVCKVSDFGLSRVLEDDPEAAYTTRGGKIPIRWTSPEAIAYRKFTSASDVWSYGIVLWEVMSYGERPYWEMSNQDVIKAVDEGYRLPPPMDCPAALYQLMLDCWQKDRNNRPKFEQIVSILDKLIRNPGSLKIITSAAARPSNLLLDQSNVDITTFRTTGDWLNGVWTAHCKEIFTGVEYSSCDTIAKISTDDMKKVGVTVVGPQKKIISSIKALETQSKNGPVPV

[7] = target: T4, Serine/threonine-protein kinase 17A (Homo sapiens, UniProt Q9UEE5)
T4 sequence (Q9UEE5 whole entry): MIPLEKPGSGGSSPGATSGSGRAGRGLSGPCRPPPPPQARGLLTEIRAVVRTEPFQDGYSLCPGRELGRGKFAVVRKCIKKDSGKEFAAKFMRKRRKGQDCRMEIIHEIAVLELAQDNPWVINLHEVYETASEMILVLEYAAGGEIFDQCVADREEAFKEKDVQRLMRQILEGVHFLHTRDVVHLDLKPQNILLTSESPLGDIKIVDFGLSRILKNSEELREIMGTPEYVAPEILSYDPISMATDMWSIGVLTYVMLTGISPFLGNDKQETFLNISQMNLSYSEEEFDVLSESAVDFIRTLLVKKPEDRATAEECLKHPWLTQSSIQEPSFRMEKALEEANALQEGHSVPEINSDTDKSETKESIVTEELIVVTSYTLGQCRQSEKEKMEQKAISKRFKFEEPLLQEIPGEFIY

[8] = target: T5, Serine/threonine-protein kinase ULK3 (Mus musculus, UniProt Q3U3Q1)
T5 sequence (Q3U3Q1 whole entry): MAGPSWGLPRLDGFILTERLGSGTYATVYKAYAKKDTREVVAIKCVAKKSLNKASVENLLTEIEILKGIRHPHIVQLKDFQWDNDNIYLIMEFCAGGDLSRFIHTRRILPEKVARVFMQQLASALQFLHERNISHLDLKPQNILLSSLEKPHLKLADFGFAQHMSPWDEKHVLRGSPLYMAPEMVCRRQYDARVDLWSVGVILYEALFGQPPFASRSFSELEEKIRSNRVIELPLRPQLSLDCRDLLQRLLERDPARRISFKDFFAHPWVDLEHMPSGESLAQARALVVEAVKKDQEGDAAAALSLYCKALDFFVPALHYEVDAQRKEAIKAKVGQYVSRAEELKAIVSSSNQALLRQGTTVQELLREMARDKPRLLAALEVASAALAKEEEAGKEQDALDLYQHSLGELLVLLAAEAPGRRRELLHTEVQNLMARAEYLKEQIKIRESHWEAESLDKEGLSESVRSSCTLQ

SMILES	Kd [1]	Kd [2]	Kd [3]	Kd [4]	Kd (Aurora kinase C)	Kd [5]	Kd [6]	Kd (Ephrin type-A receptor 3)	Kd [7]	Kd [8]
CCOc1cc2ncc(C#N)c(Nc3ccc(F)c(Cl)c3)c2cc1NC(=O)/C=C/CN(C)C [PELITINIB]	930 nM	2300 nM								
Oc1c2ccccc2c2c3c(cccc13)N=N2 [SP-600125]			1000 nM	260 nM	5.3 µM	3.7 µM	4.1 µM	4 µM	2100 nM	680 nM
